According to patent publication US9630958B2, “Triazine compounds” (Sphaera Pharma Pte. Ltd., priority 2012, dated 2017):

Tests used:
[1] = biological target: T1, PI3 Kinase alpha (p110 alpha/p85 alpha) (Homo sapiens, UniProt P42336); assay: PI3K TR-FRET assay (Transcreener ADP2); format: biochemical; conditions: for IC50: PI3K alpha, 1 μM ATP, 50 μM PIP2; for inhibition at 1 µM: 1 uM compound, read-out: PI3K % Inhib@1 uM
T1 construct: purchased Invitrogen
Procedure, shortened: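 p110α/p85α with diC8 PIP2 (50 μM) and 1 μM ATP in 50 mM HEPES pH 7.4, MgCl2, CHAPS, DTT, EGTA; 1 h at room temperature. ADP detected by Transcreener ADP2 TR-FRET (665/615 nm ratio), converted to product via ADP-ATP standard curve; IC50 from four-parameter fit of % inhibition.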

Recombinant mTOR (FRAP1) = biological target: T2, Recombinant mTOR (FRAP1) (Homo sapiens, UniProt P42345); assay: mTOR in vitro kinase assay (TR-FRET, phosphorylation of GFP-4E-BP1); format: biochemical; conditions: for inhibition at 1 µM: 1 uM compound, read-out: mTOR % Inhib@1 uM; for IC50: 8 μM ATP, 400 nM GFP-4E-BP1
T2 construct: purchased Invitrogen
Procedure, shortened: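 Recombinant human mTOR with GFP-4E-BP1 substrate at 400 nM and 8 μM ATP, 1 h at room temperature, then quenched with 10 mM EDTA plus 2 nM Tb-anti-p4E-BP1 (pThr46) for 1 h. TR-FRET 520/486 nm ratio fitted against inhibitor concentration by four-parameter sigmoidal regression.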

T1 sequence (P42336 whole entry): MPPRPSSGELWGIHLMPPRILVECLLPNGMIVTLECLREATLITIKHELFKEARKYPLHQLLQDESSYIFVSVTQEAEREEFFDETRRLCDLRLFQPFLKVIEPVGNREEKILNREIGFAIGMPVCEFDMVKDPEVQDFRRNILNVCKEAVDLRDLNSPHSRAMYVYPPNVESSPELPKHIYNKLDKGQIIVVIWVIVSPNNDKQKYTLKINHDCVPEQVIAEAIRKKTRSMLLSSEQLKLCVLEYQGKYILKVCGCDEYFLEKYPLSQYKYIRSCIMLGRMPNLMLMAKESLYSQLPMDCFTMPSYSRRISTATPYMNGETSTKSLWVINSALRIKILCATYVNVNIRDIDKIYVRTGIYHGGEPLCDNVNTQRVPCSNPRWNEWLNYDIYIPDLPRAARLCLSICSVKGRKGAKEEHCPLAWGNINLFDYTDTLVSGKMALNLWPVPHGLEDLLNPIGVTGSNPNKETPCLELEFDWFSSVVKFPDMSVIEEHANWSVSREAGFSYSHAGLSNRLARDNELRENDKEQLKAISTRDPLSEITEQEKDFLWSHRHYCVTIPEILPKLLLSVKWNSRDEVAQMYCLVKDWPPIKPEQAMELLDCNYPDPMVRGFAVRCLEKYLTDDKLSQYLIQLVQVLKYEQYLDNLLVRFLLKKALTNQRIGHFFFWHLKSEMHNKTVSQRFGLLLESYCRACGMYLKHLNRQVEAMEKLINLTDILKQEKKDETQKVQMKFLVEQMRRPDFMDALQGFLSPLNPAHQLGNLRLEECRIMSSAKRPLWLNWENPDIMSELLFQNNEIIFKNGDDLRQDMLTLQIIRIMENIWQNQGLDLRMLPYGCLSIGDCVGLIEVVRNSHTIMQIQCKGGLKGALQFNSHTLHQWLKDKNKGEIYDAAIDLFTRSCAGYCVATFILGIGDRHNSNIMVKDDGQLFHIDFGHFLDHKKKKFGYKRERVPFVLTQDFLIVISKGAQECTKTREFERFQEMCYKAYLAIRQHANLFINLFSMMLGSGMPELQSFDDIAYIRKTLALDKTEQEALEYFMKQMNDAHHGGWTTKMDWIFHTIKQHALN
T1 sequence (P27986 whole entry partner): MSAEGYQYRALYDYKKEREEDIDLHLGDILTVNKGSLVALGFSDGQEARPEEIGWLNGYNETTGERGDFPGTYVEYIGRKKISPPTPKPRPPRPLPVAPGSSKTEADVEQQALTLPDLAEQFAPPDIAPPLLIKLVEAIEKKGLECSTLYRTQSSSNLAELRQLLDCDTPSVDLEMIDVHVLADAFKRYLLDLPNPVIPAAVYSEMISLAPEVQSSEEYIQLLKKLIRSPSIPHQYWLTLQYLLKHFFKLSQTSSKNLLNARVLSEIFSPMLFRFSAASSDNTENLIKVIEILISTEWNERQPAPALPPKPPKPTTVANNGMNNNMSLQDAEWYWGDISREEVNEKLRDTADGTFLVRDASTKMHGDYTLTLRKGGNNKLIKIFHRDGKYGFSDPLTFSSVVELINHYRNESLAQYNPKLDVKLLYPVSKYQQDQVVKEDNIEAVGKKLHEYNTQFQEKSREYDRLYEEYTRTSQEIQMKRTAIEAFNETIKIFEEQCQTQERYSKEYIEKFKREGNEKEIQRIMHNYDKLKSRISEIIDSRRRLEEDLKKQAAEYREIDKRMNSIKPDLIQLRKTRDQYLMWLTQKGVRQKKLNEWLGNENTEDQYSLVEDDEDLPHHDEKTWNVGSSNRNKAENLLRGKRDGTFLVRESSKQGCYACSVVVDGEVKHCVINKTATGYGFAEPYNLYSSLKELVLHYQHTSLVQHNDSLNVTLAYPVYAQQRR
T2 sequence (P42345 1360-2549 limits assumed): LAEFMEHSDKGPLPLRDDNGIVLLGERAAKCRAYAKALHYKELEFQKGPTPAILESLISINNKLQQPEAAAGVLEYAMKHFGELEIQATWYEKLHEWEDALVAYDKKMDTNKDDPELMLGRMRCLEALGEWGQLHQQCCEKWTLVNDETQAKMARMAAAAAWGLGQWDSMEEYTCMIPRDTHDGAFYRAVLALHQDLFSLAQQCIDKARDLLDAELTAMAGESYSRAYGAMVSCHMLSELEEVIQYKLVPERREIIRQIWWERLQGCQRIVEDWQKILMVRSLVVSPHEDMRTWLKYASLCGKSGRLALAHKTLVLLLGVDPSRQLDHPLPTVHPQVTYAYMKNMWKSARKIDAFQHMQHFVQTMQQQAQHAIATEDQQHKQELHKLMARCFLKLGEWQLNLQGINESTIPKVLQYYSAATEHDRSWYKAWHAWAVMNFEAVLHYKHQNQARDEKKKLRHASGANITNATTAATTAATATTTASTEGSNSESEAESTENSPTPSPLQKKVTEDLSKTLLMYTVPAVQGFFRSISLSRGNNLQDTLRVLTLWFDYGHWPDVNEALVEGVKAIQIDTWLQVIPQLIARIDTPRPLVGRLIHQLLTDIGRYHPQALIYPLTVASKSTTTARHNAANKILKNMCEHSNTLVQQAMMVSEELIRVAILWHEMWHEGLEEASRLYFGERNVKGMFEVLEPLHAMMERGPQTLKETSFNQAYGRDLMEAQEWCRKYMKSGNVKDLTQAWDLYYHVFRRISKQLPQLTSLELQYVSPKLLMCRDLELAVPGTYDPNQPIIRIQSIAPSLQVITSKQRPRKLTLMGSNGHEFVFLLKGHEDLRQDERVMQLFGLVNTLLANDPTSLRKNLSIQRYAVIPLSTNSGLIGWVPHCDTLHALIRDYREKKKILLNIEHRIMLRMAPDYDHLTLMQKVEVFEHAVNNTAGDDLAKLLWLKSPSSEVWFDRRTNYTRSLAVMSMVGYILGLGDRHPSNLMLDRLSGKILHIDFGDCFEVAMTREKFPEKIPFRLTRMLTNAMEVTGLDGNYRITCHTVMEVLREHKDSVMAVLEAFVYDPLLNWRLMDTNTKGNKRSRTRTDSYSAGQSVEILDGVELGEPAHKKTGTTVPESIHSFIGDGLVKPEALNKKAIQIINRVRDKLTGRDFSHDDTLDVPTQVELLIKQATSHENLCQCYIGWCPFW

SMILES	IC50 [1] [µM]	inhibition at 1 µM (Recombinant mTOR (FRAP1)) [%]	IC50 (Recombinant mTOR (FRAP1)) [µM]	inhibition at 1 µM [1] [%]
CN(C)C(=O)c1ccc(Oc2nc(-c3cnc(N)s3)nc(N3[C@@H]4CC[C@H]3COC4)n2)cc1 [Compound 10011, 4-(4-(2-aminothiazol-5-yl)-6-((1R,5S)-3-oxa-8-azabicyclo[3.2.1]octan-8-yl)-1,3,5-triazin-2-yloxy)-N,N-dimethylbenzamide]	> 1	> 50	< 1	–
C[C@H]1COCCN1c1nc(Oc2ccc(C(=O)N(C)C)cc2)nc(-c2ccc(N)nc2)n1 [Compound 10096, (S)-4-((4-(6-Aminopyridin-3-yl)-6-(3-methylmorpholino)-1,3,5-triazin-2-yl)oxy)-N,N-dimethylbenzamide]	< 1	> 50	< 1	–
CN(C)C(=O)Cc1ccc(Oc2nc(-c3cnc(N)nc3)nc(N3CCOCC3)n2)cc1 [Compound 10189, 2-(4-((4-(2-aminopyrimidin-5-yl)-6-morpholino-1,3,5-triazin-2-yl)oxy)phenyl)-N,N-dimethylacetamide]	< 1	< 50	–	–
CN(C)C(=O)C1CCC(Oc2nc(-c3ccc4[nH]ccc4c3)nc(N3CCO[C@@H]4CCC[C@H]43)n2)CC1 (stereo partly drawn) [Compound 10150, (1S,4s)-4-(4-((4aR,7aR)-hexahydrocyclopenta[b][1,4]oxazin-4(4aH)-yl)-6-(1H-indol-5-yl)-1,3,5-triazin-2-yloxy)-N,N-dimethylcyclohexanecarboxamide]	–	–	> 10	< 50
CNC(=O)Nc1ncc(-c2nc(Oc3ccc(C(=O)N(C)C)cc3)nc(N3CCOC[C@@H]3C)n2)s1 [Compound 10091, (S)-N,N-dimethyl-4-((4-(3-methylmorpholino)-6-(2-(3-methylureido)thiazol-5-yl)-1,3,5-triazin-2-yl)oxy)benzamide]	< 1	> 50	< 1	–
C[C@H]1COCCN1c1nc(Oc2ccc(C(=O)N(C)C)cc2)nc(-c2cnc(NC(=O)NC3CC3)s2)n1 [Compound 10093]	< 1	–	< 1	> 50
C[C@H]1COCCN1c1nc(Oc2ccc(C(=O)N(C)C)cc2)nc(C2=CC=C(N)N(O)C2)n1 [Compound 10125]	–	< 50	–	< 50
CN(C)C(=O)[C@H]1CC[C@H](Oc2nc(-c3ccc(N)nc3)nc(N3CCOCC3)n2)CC1 [Compound 10049, (1r,4r)-4-(4-(6-aminopyridin-3-yl)-6-morpholino-1,3,5-triazin-2-yloxy)-N,N-dimethylcyclohexanecarboxamide]	< 1	> 50	< 1	–
CN(C)C(=O)c1ccc(Oc2nc(-c3cnc(N)cc3C(F)(F)F)nc(N3CCOCC3)n2)cc1 [Compound 10015, 4-(4-(6-amino-4-(trifluoromethyl)pyridin-3-yl)-6-morpholino-1,3,5-triazin-2-yloxy)-N,N-dimethylbenzamide]	< 1	> 50	< 1	–
CS(=O)(=O)N1CCC(COc2nc(-c3ccc(N)nc3)nc(N3CCOCC3)n2)CC1 [Compound 10185, 5-(4-((1-(methylsulfonyl)piperidin-4-yl)methoxy)-6-morpholino-1,3,5-triazin-2-yl)pyridin-2-amine]	< 1	< 50	–	–
CS(=O)(=O)N1CCC(COc2nc(-c3cnc(N)s3)nc(N3CCOCC3)n2)C1 (centres unmarked) [Compound 10197, 5-(4-((1-(methylsulfonyl)pyrrolidin-3-yl)methoxy)-6-morpholino-1,3,5-triazin-2-yl)thiazol-2-amine]	< 1	< 50	–	–
C[C@H]1COCCN1c1nc(Oc2ccc(C(=O)N(C)C)cc2F)nc(-c2cnc3[nH]ccc3c2)n1 [Compound 10103, (S)-3-Fluoro-N,N-dimethyl-4-((4-(3-methylmorpholino)-6-(1H-pyrrolo-[2,3-b]pyridin-5-yl)-1,3,5-triazin-2-yl)oxy)benzamide]	< 1	–	< 1	–
CN(C)C(=O)c1ccc(Oc2nc(-c3cnc(N)s3)nc(N3CCSCC3)n2)cc1 [Compound 10118, 4-(4-(2-aminothiazol-5-yl)-6-thiomorpholino-1,3,5-triazin-2-yloxy)-N,N-dimethylbenzamide]	> 1	> 50	> 3	–
C[C@@H]1CN(c2nc(Oc3ccc(C(=O)N(C)C)cc3F)nc(-c3cnc4[nH]ccc4c3)n2)[C@@H](C)CO1 [Compound 10105, 4-((4-((2R,5S)-2,5-dimethylmorpholino)-6-(1H-pyrrolo[2,3-b]pyridine-5-yl)-1,3,5-triazin-2-yl)oxy)-3-fluoro-N,N-dimethylbenzamide]	> 1	–	< 1	–
